Data taken from PubChem BioAssay AID330 (DTP/NCI, 2004).
“And” between values parts separate entries of the source, which are not always exact repeats. Identical values can stand only once. Inconclusive results and toxic doses are left out. Rule for the calls: active = survival T/C of 150% or more; inactive = T/C below 125% in these data. Peptide text beside a SMILES is read from it.

System: P388 leukemia ip, CD2F1 mice, survival T/C
Assay: NCI In Vivo Anticancer Drug Screen. Data for tumor model P388 Leukemia (intraperitoneal) in CD2F1 (CDF1) mice
Conditions: endpoint: median survival time, higher = longer survival
Procedure, shortened: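 Mice carrying the transplanted tumor received test compound or vehicle. Survival was recorded in each group, and the value is the treated-group measurement divided by that of the vehicle-treated control group.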

[1] = dose: 50.0 mg/kg/injection, schedule: Q01DX009 (ip), vehicle: saline with Tween-80
[2] = dose: 60.0 mg/kg/injection, schedule: Q01DX005 (ip), vehicle: saline with Tween-80
[3] = dose: 120.0 mg/kg/injection, schedule: Q01DX005 (ip), vehicle: saline with Tween-80
[4] = dose: 240.0 mg/kg/injection, schedule: Q01DX005 (ip), vehicle: saline with Tween-80
[5] = dose: 50.0 mg/kg/injection, schedule: Q04DX003 (ip), vehicle: saline with Tween-80
[6] = dose: 100.0 mg/kg/injection, schedule: Q04DX003 (ip), vehicle: saline with Tween-80
[7] = dose: 100.0 mg/kg/injection, schedule: Q01DX001 (ip), vehicle: saline with Tween-80
[8] = dose: 200.0 mg/kg/injection, schedule: Q01DX001 (ip), vehicle: saline with Tween-80
[9] = dose: 12.5 mg/kg/injection, schedule: Q04DX003 (ip), vehicle: saline with Tween-80
[10] = dose: 50.0 mg/kg/injection, schedule: Q01DX009 (ip), vehicle: Klucel (hydroxypropylcellulose) (HPC)
[11] = dose: 100.0 mg/kg/injection, schedule: Q01DX009 (ip), vehicle: Klucel (hydroxypropylcellulose) (HPC)
[12] = dose: 200.0 mg/kg/injection, schedule: Q01DX009 (ip), vehicle: Klucel (hydroxypropylcellulose) (HPC)
[13] = dose: 200.0 mg/kg/injection, schedule: Q04DX003 (ip), vehicle: saline with Tween-80
[14] = dose: 400.0 mg/kg/injection, schedule: Q04DX003 (ip), vehicle: saline with Tween-80

Measured: T/C

ClC1=CC(Cl)=C2N=C(C(Cl)(Cl)Cl)N=C3N=C(C(Cl)(Cl)Cl)N=C1N32
inactive: dose: 15.0 mg/kg/injection, schedule: Q01DX005 (ip), vehicle: Klucel + Tween-80 101 % of control | dose: 30.0 mg/kg/injection, schedule: Q01DX005 (ip), vehicle: Klucel + Tween-80 95 % of control | dose: 60.0 mg/kg/injection, schedule: Q01DX005 (ip), vehicle: Klucel + Tween-80 99 % of control and 100 % of control

Cc1cc(N)c2ccccc2c1O
inactive: dose: 12.5 mg/kg/injection, schedule: Q01DX009 (ip), vehicle: saline with Tween-80 110 % of control | dose: 25.0 mg/kg/injection, schedule: Q01DX009 (ip), vehicle: saline with Tween-80 124 % of control | [1] 108 % of control

O=C(Nc1nn[nH]n1)c1nc(-c2ccccc2)cc(=O)[nH]1
inactive: [2] 101 % of control | [3] 101 % of control | [4] 86 % of control

BrC1C(c2ccccc2)=NOC12CN=C(c1ccccc1)O2 (centres undefined)
inactive: dose: 100.0 mg/kg/injection, schedule: Q01DX001 (ip), vehicle: Klucel (hydroxypropylcellulose) (HPC) 101 % of control | dose: 200.0 mg/kg/injection, schedule: Q01DX001 (ip), vehicle: Klucel (hydroxypropylcellulose) (HPC) 99 % of control | dose: 400.0 mg/kg/injection, schedule: Q01DX001 (ip), vehicle: Klucel (hydroxypropylcellulose) (HPC) 96 % of control

COc1nc(NC2OCC(OC(C)=O)C(OC(C)=O)C2OC(C)=O)c(N=C(C)C(C)=O)c(=O)n1C (centres undefined)
inactive: [2] 86 % of control | [3] 92 % of control | [4] 94 % of control

Brc1ccc(Nc2c3ccccc3nc3ccccc23)cc1
inactive: [5] 95 % of control | [6] 100 % of control

CCOC(=O)c1ccc(N(C)Cc2cnc(N)c(C#N)n2)cc1
inactive: dose: 15.0 mg/kg/injection, schedule: Q01DX009 (ip), vehicle: saline with Tween-80 114 % of control | dose: 30.0 mg/kg/injection, schedule: Q01DX009 (ip), vehicle: saline with Tween-80 115 % of control | dose: 60.0 mg/kg/injection, schedule: Q01DX009 (ip), vehicle: saline with Tween-80 89 % of control

Cc1ccc(S(=O)(=O)OC2=C3OC(=O)C4(C3C=CC=C2)C2C=CC=CC24)cc1 (centres undefined)
inactive: [7] 96 % of control | [8] 93 % of control | dose: 400.0 mg/kg/injection, schedule: Q01DX001 (ip), vehicle: saline with Tween-80 90 % of control

O=C1C=CC(=O)c2cc(Cl)c(Cl)cc21
inactive: dose: 4.12 mg/kg/injection, schedule: Q01DX009 (ip), vehicle: saline with Tween-80 109 % of control | dose: 6.25 mg/kg/injection, schedule: Q01DX009 (ip), vehicle: saline with Tween-80 113 % of control | dose: 6.25 mg/kg/injection, schedule: Q04DX003 (ip), vehicle: saline with Tween-80 91 % of control | [9] 91 % of control

Cn1c(N)c(N=O)c(=O)n(C)c1=O
inactive: dose: 90.0 mg/kg/injection, schedule: Q01DX009 (ip), vehicle: saline with Tween-80 90 % of control | dose: 180.0 mg/kg/injection, schedule: Q01DX009 (ip), vehicle: saline with Tween-80 95 % of control | dose: 360.0 mg/kg/injection, schedule: Q01DX009 (ip), vehicle: saline with Tween-80 95 % of control

C[Si](C)(C)N1C(=O)c2ccccc2C1=O
inactive: [10] 100 % of control | [11] 115 % of control | [12] 107 % of control

O=c1cccc2c3ccccc3ccn12
inactive: dose: 60.0 mg/kg/injection, schedule: Q01DX005 (ip), vehicle: Klucel (hydroxypropylcellulose) (HPC) 91 % of control | dose: 120.0 mg/kg/injection, schedule: Q01DX005 (ip), vehicle: Klucel (hydroxypropylcellulose) (HPC) 95 % of control

CC(C)C(N)C(=O)NCC(=O)NC(CO)C(=O)NC(CCC(=O)O)C(=O)O (centres undefined) (H-VGSE-OH; configuration not given here)
inactive: dose: 10.0 mg/kg/injection, schedule: Q01DX005 (ip), vehicle: water 100 % of control | dose: 20.0 mg/kg/injection, schedule: Q01DX005 (ip), vehicle: water 102 % of control | dose: 40.0 mg/kg/injection, schedule: Q01DX005 (ip), vehicle: water 100 % of control | dose: 80.0 mg/kg/injection, schedule: Q01DX005 (ip), vehicle: water 97 % of control | dose: 160.0 mg/kg/injection, schedule: Q01DX005 (ip), vehicle: water 104 % of control

COc1ccc(CCN2C=CC(C#N)C=C2)cc1OC
inactive: dose: 50.0 mg/kg/injection, schedule: Q01DX005 (ip), vehicle: Klucel (hydroxypropylcellulose) (HPC) 91 % of control | dose: 100.0 mg/kg/injection, schedule: Q01DX005 (ip), vehicle: Klucel (hydroxypropylcellulose) (HPC) 101 % of control | dose: 200.0 mg/kg/injection, schedule: Q01DX005 (ip), vehicle: Klucel (hydroxypropylcellulose) (HPC) 98 % of control

CC(CNC(=O)CCBr)NC(=O)CCBr (centres undefined)
inactive: dose: 12.5 mg/kg/injection, schedule: Q01DX009 (ip), vehicle: saline 105 % of control | dose: 25.0 mg/kg/injection, schedule: Q01DX009 (ip), vehicle: saline 116 % of control | dose: 400.0 mg/kg/injection, schedule: Q01DX009 (ip), vehicle: suspension in saline 116 % of control

NS(=O)(=O)c1c[nH]c(=O)[nH]c1=O
inactive: [10] 105 % of control | [11] 93 % of control | [12] 97 % of control | dose: 400.0 mg/kg/injection, schedule: Q01DX009 (ip), vehicle: Klucel (hydroxypropylcellulose) (HPC) 91 % of control

CCN(CC)CC(O)c1c(OC)ccc2ccccc12 (centres undefined)
inactive: dose: 12.5 mg/kg/injection, schedule: Q01DX005 (ip), vehicle: saline 96 % of control | dose: 25.0 mg/kg/injection, schedule: Q01DX005 (ip), vehicle: saline 96 % of control | dose: 50.0 mg/kg/injection, schedule: Q01DX005 (ip), vehicle: saline 104 % of control and 97 % of control

Cc1ccc(C(=O)CCl)c(C)c1
inactive: [9] 110 % of control | dose: 25.0 mg/kg/injection, schedule: Q04DX003 (ip), vehicle: saline with Tween-80 105 % of control | [5] 110 % of control

CN1CCN(c2c(C(=O)Nc3ccc([N+](=O)[O-])cc3)cc([N+](=O)[O-])cc2[N+](=O)[O-])CC1
inactive: [2] 92 % of control | [3] 90 % of control

CC(=O)N(C(C)=O)c1cnc2c(nc3cc(C)ccn32)c1C
inactive: [7] 92 % of control | [8] 98 % of control

O=C(/C=C/c1ccc(Cl)cc1)/C=C/c1ccc(Cl)cc1
inactive: [1] 91 % of control | dose: 100.0 mg/kg/injection, schedule: Q01DX009 (ip), vehicle: saline with Tween-80 86 % of control | dose: 200.0 mg/kg/injection, schedule: Q01DX009 (ip), vehicle: saline with Tween-80 93 % of control

O=C1C(=Nc2ccccc2)Cc2ccccc21
inactive: [6] 100 % of control | [13] 96 % of control | [14] 100 % of control

COc1cc2oc(-c3ccc(O)cc3O)c(CC=C(C)C)c(=O)c2c(O)c1/C=C/C(C)C
inactive: dose: 1.56 mg/kg/injection, schedule: Q01DX009 (ip), vehicle: Klucel (hydroxypropylcellulose) (HPC) 107 % of control | dose: 3.12 mg/kg/injection, schedule: Q01DX009 (ip), vehicle: Klucel (hydroxypropylcellulose) (HPC) 105 % of control | dose: 6.25 mg/kg/injection, schedule: Q01DX009 (ip), vehicle: Klucel (hydroxypropylcellulose) (HPC) 100 % of control | dose: 12.5 mg/kg/injection, schedule: Q01DX009 (ip), vehicle: Klucel (hydroxypropylcellulose) (HPC) 98 % of control

Nc1nc(N)c(N)c(N)n1
inactive: [5] 98 % of control | [6] 104 % of control | [13] 97 % of control | [14] 96 % of control
